Source: article PMC5312080 (mBio, 2017)
In brackets after ≈: the same amount, converted by molar mass. Several values for one entry are separate records, joined by “and”; a condition that tells them apart may be missing. Identical values can stand only once. Like-named read-outs stand apart in the source and are kept apart here.

Columns and labels:
[1] = test system: menaquinone biosynthesis (MenG); type: cell-based, Mycobacterium bovis BCG
[2] = test system: BCG; type: cell-based, Mycobacterium bovis BCG
[3] = test system: M. tuberculosis H37Rv; assay: Checkerboard alamarBlue compound interaction assay; type: cell-based, Mycobacterium tuberculosis; settings: for MIC: Mycobacterium tuberculosis, H37RV, drug alone, checkerboard; for FIC category / FIC index (∑FIC): combination of the named drug with DG70
[4] = test system: mycobacterial oxygen consumption; assay: Oxygen consumption, methylene blue decolorization; type: cell-based
[5] = test system: ATP synthesis in BCG; type: cell-based, Mycobacterium bovis BCG
[6] = in vitro; settings: mouse, microsomes
[7] = test system: Burkholderia cepacia; assay: MABA MIC; type: cell-based
[8] = test system: M. bovis BCG; assay: microbe, parasite or virus in culture; type: cell-based; settings: Mycobacterium tuberculosis variant bovis BCG
[9] = test system: Pseudomonas aeruginosa; assay: MABA MIC; type: cell-based
[10] = test system: M. abcessus; assay: MABA MIC; type: cell-based, Mycobacterium abscessus; settings: Mycobacteroides abscessus
[11] = test system: M. tuberculosis mc^26206 in J774A.1 murine macrophages; type: cell-based; settings: J774A.1 macrophages, 3 days, concentrations equivalent to in vitro MIC
[12] = test system: M. avium; assay: MABA MIC; type: cell-based, Mycobacterium avium subsp. avium; settings: Mycobacterium avium
[13] = test system: S. aureus MRSA; assay: MABA MIC; type: cell-based; settings: Staphylococcus aureus
[14] = test system: E. faecium; assay: MABA MIC; type: cell-based; settings: Enterococcus faecium
[15] = test system: E. cloacae; assay: MABA MIC; type: cell-based; settings: Enterobacter cloacae
[16] = test system: M. tuberculosis H37Rv; assay: Microdilution alamarBlue assay (MABA) MIC; type: cell-based; settings: Mycobacterium tuberculosis
[17] = test system: M. marinum; assay: MABA MIC; type: cell-based; settings: Mycobacterium marinum
[18] = test system: BCG::pMV306PHsp60 strains overexpressing menG; type: cell-based, Mycobacterium bovis BCG
[19] = test system: PcydAB promoter (cydAB operon) reporter; type: cell-based, Mycobacterium bovis BCG
[20] = test system: nonreplicating M. tuberculosis; type: cell-based, Mycobacterium tuberculosis; settings: for reduction of CFU: 7 days, M. tuberculosis starved 6 weeks in PBS
[21] = test system: nontuberculous mycobacteria (NTM); assay: organism not typed; type: cell-based
[22] = test system: Yersinia pseudotuberculosis; assay: microbe, parasite or virus in culture; type: cell-based
[23] = test system: Francisella philomiragia; assay: microbe, parasite or virus in culture; type: cell-based
[24] = test system: Klebsiella pneumoniae; assay: MABA MIC; type: cell-based
[25] = test system: Bacillus cereus; assay: MABA MIC; type: cell-based
[26] = test system: S. epidemis 14490; assay: MABA MIC; type: cell-based; settings: Staphylococcus epidermidis
[27] = test system: M. fortuitum; assay: MABA MIC; type: cell-based, Mycobacterium fortuitum; settings: Mycolicibacterium fortuitum
[28] = test system: M. smegmatis; assay: MABA MIC; type: cell-based, Mycobacterium smegmatis; settings: Mycolicibacterium smegmatis
[29] = in vitro; settings: African green monkey
[30] = test system: Brucella neotomae; assay: microbe, parasite or virus in culture; type: cell-based
[31] = test system: A. baumanii; assay: MABA MIC; type: cell-based; settings: Acinetobacter baumannii
[32] = test system: BCG overexpressing menG_F118L; type: cell-based; settings: 20 µg/ml of DG70, 7 days, CFU
[33] = test system: Legionella pneumophila; assay: microbe, parasite or virus in culture; type: cell-based
[34] = test system: menaquinone biosynthesis (MenG); type: cell-based, Mycobacterium bovis BCG; remark: listed apart in the source
[35] = FIC of the anti-TB drug in combination with DG70
[36] = anti-TB drug in combination with DG70
[37] = Table S2, parent H37Rv, read-out: MIC in Mtb H37Rv
[38] = whole-cell activity versus M. tuberculosis, […], read-out: MIC

COc1nc2ccc(Br)cc2cc1[C@@H](c1ccccc1)[C@@](O)(CCN(C)C)c1cccc2ccccc12 [BDQ, bedaquiline]
[14C]methyl incorporation into menaquinone [1]: no such effect
killing (drop in CFU) over 21 days [2]: 5 log10
killing in 4 days [2]: less than 1 log10
time of treatment to sterile cultures (no CFU detected) [2]: 21 days
FIC [3, 35]: 0.4
MIC [3]: 0.39 µM
MIC In combination [3, 36]: 0.16 µM
FIC category [3]: synergistic (≤0.5, synergistic)
FIC index (∑FIC) [3]: 0.5
effect of MK4 supplementation on inhibition of oxygen consumption ([4]; 400 µM MK4): failed to reverse
effect of MK4 supplementation on inhibition of ATP synthesis [5]: failed to reverse

COc1ccc(-c2cc(NC(=O)c3ccc(F)cc3Cl)ccc2OC)cc1 [DG70, 2-chloro-N-(4',6-dimethoxy-[1,1'-biphenyl]-3-yl)-4-fluorobenzamide]
microsomal CLint [6]: 921 µL/min/mg
[14C]methyl incorporation into menaquinone [1]: complete suppression
MIC [7]: > 40 µg/mL
effect of MK4 pretreatment on bactericidal activity [2]: could be reversed
killing (drop in CFU) over 21 days [2]: 5 log10
killing in 4 days [2]: less than 1 log10
reduction of cultures after 2 days of treatment [2]: ≤ 1 log10
MIC In combination ([3]; DG70 in combination with BDQ): 1.5 µM
MIC In combination ([3]; DG70 in combination with EMB): 1.5 µM
MIC In combination ([3]; DG70 in combination with INH): 3.12 µM
MIC In combination ([3]; DG70 in combination with PA824): 0.35 µM
MIC In combination ([3]; DG70 in combination with RIF): 3.1 µM
MIC In combination ([3]; DG70 in combination with THZ): 3.12 µM
FIC ([3]; FIC of DG70 in combination with BDQ): 0.1
FIC ([3]; FIC of DG70 in combination with EMB): 0.12
FIC ([3]; FIC of DG70 in combination with INH): 0.2
FIC ([3]; FIC of DG70 in combination with PA824): 0.03
FIC ([3]; FIC of DG70 in combination with RIF): 0.25
FIC ([3]; FIC of DG70 in combination with THZ): 0.2
MIC [3]: 12.5 µM
MIC [8]: 2.4 µg/mL (≈ 6.22 µM)
MIC [9]: > 20 µg/mL
MIC [10]: > 40 µg/mL
intracellular M. tuberculosis growth in macrophages [11]: inhibited intracellular M. tuberculosis growth
MIC [12]: > 40 µg/mL
MIC [13]: > 20 µg/mL
MIC [14]: > 20 µg/mL
MIC [15]: > 20 µg/mL
MIC90 ([16]; H37Rv + 400 µM MK4, read-out: MIC90): 9.6 µg/mL
MIC90 ([16]; H37Rv, lab strain, […], read-out: MIC90): 4.8 µg/mL (≈ 12.4 µM)
MIC ([16]; M. tuberculosis (Table S1), read-out: MIC): 4.8 µg/mL (≈ 12.4 µM)
MIC [16, 37]: 2.4 µg/mL (≈ 6.22 µM)
MIC [16, 38]: 2.4 µg/mL (≈ 6.22 µM)
MIC [17]: > 40 µg/mL
increase of DG70 MIC on overexpression of menG [18]: 4 ×
peak PcydAB induction [19]: 3.1 fold
effect of MK4 on killing of nutrient-deprived M. tuberculosis ([20]; 400 µM MK4): reversed
reduction of CFU ([20]; 5× MIC): 4 log10
reduction of CFU ([20]; 10× MIC): 6.5 log10
MIC [21]: > 100 µM
activity against NTM and other bacteria [21]: lacked activity
MIC [22]: > 40 µg/mL
MIC [23]: > 40 µg/mL
MIC [24]: > 20 µg/mL
MIC [25]: > 40 µg/mL
MIC [26]: > 20 µg/mL
MIC [27]: > 40 µg/mL
MIC [28]: > 40 µg/mL
CC50 ([29]; 50% cytotoxic concentration (CC50), Vero cells): > 77 µg/mL
CC50 ([29]; CC50, Vero cells, 48 h, MTT): > 80 µg/mL
MIC [30]: > 40 µg/mL
MIC [31]: > 20 µg/mL
growth inhibition of strain overexpressing menG_F118L [32]: completely resistant
oxygen consumption (methylene blue decolorization at 665 nm) [4]: strongly prevented decolorization of methylene blue
effect of MK4 supplementation on inhibition of oxygen consumption ([4]; 400 µM MK4): rescued
effect of MK4 supplementation on inhibition of ATP synthesis [5]: rescued
intracellular ATP levels [5]: significant decrease in ATP levels
MIC [33]: > 40 µg/mL

CC[C@@H](CO)NCCN[C@@H](CC)CO [EMB, ethambutol]
FIC [3, 35]: 0.5
MIC [3]: 6.25 µM
MIC In combination [3, 36]: 3.12 µM
FIC category [3]: additive (>0.5 to ≤1, additive)
FIC index (∑FIC) [3]: 0.6

NNC(=O)c1ccncc1 [INH, isoniazid]
[14C]methyl incorporation into menaquinone [1]: no such effect
regrowth after [2]: 7 days
time of treatment to sterile cultures (no CFU detected) [2]: 10 days
FIC [3, 35]: 0.2
MIC [3]: 0.39 µM
MIC In combination [3, 36]: 0.09 µM
FIC category [3]: synergistic (≤0.5, synergistic)
FIC index (∑FIC) [3]: 0.4
MIC90 [8]: 0.05 µg/mL (≈ 0.365 µM)
MK9/DMK9 [34]: 3.8 and 2.9
MIC90 [16]: 0.05 µg/mL (≈ 0.365 µM)
day by which cultures were completely sterilized [20]: ≤ 10 days
oxygen consumption (methylene blue decolorization at 665 nm) [4]: clearly decolorized methylene blue

COc1ccc(-c2cccc(NC(=O)c3ccc(F)cc3Cl)c2)cc1 [JSF-2907]
MIC [16, 37]: > 77 µg/mL
MIC [16, 38]: > 77 µg/mL
CC50 [29]: 50 µg/mL (≈ 141 µM)

COc1ccc(-c2cc(NC(=O)c3ccccc3Cl)ccc2OC)cc1 [JSF-2908]
MIC [16, 37]: 4.8 µg/mL (≈ 13 µM)
MIC [16, 38]: 4.8 µg/mL (≈ 13 µM)
CC50 [29]: 50 µg/mL (≈ 136 µM)

COc1ccc(-c2cc(NC(=O)c3ccc(F)cc3)ccc2OC)cc1 [JSF-2909]
MIC [16, 37]: > 77 µg/mL
MIC [16, 38]: > 77 µg/mL
CC50 [29]: > 50 µg/mL

O=C(Nc1cccc(-c2ccccc2)c1)c1ccc(F)cc1Cl [JSF-2910]
MIC [16, 37]: 9.6 µg/mL (≈ 29.5 µM)
MIC [16, 38]: 9.6 µg/mL (≈ 29.5 µM)
CC50 [29]: > 50 µg/mL

COc1ccc(-c2cc(NC(=O)c3ccccc3)ccc2OC)cc1 [JSF-2912]
MIC [16, 37]: 9.6 µg/mL (≈ 28.8 µM)
MIC [16, 38]: 9.6 µg/mL (≈ 28.8 µM)
CC50 [29]: > 80 µg/mL

COc1ccc(NC(=O)c2ccc(F)cc2Cl)cc1 [JSF-2926]
MIC [16, 37]: 9.6 µg/mL (≈ 34.3 µM)
MIC [16, 38]: 9.6 µg/mL (≈ 34.3 µM)
CC50 [29]: > 70 µg/mL

COc1ccc(-c2cc(N(C)C(=O)c3ccc(F)cc3Cl)ccc2OC)cc1 [JSF-2949]
MIC [16, 37]: 39.5 µg/mL (≈ 98.8 µM)
MIC [16, 38]: 39 µg/mL (≈ 97.5 µM)
CC50 [29]: 24 µg/mL (≈ 60 µM)

O=C(Nc1ccc(O)c(-c2ccc(O)cc2)c1)c1ccc(F)cc1Cl [JSF-2950]
MIC [16, 37]: 39.5 µg/mL (≈ 110 µM)
MIC [16, 38]: 39 µg/mL (≈ 109 µM)
CC50 [29]: 50 µg/mL (≈ 140 µM)

COc1ccc(-c2cc(NCc3ccc(F)cc3Cl)ccc2OC)cc1 [JSF-2951]
MIC [16, 37]: 77 µg/mL (≈ 207 µM)
MIC [16, 38]: 77 µg/mL (≈ 207 µM)
CC50 [29]: > 50 µg/mL

COc1ccc(NC(=O)c2ccc(F)cc2Cl)cc1-c1ccccc1 [JSF-2971]
MIC [16, 37]: 9.6 µg/mL (≈ 27 µM)
MIC [16, 38]: 9.6 µg/mL (≈ 27 µM)
CC50 [29]: > 50 µg/mL

O=[N+]([O-])c1cn2c(n1)OC[C@@H](OCc1ccc(OC(F)(F)F)cc1)C2 [PA824]
regrowth after [2]: 10 days
time of treatment to sterile cultures (no CFU detected) [2]: 10 days
FIC [3, 35]: 1.0
MIC [3]: 0.1 µM
MIC In combination [3, 36]: 0.1 µM
FIC category [3]: additive (>0.5 to ≤1, additive)
FIC index (∑FIC) [3]: 1.0

CO[C@H]1/C=C/O[C@@]2(C)Oc3c(C)c(O)c4c(O)c(c(/C=N/N5CCN(C)CC5)c(O)c4c3C2=O)NC(=O)/C(C)=C\C=C\[C@H](C)[C@H](O)[C@@H](C)[C@@H](O)[C@@H](C)[C@H](OC(C)=O)[C@@H]1C [RIF, rifampin]
FIC [3, 35]: 0.25
MIC [3]: 0.02 µM
MIC In combination [3, 36]: 0.005 µM
FIC category [3]: synergistic (≤0.5, synergistic)
FIC index (∑FIC) [3]: 0.5

CSc1ccc2c(c1)N(CCC1CCCCN1C)c1ccccc1S2 (stereo not shown) [THZ, thioridazine]
FIC [3, 35]: 0.5
MIC [3]: 6.25 µM
MIC In combination [3, 36]: 3.12 µM
FIC category [3]: additive (>0.5 to ≤1, additive)
FIC index (∑FIC) [3]: 0.7
effect of MK4 supplementation on inhibition of oxygen consumption [4]: failed to reverse
effect of MK4 supplementation on inhibition of ATP synthesis [5]: failed to reverse
